According to patent US10550105B2 (Ribon Therapeutics Inc., priority 2018, dated 2020):

target: PARP7 (Homo sapiens (Human), UniProt Q7Z3E1); assay: Enzymatic assay for inhibition of PARP7: TR-FRET displacement of biotinylated Probe A from the TIPARP active site; assay type: binding; conditions: Table A-1
Outline: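 Displacement of biotinylated Probe A from TIPARP was measured as the 665/615 nm time-resolved FRET ratio (excitation 320 nm, 90 μs delay) after a further 30 min at 25 °C. Inhibition across compound concentrations was fitted by dose-response regression, with the Hill slope free or fixed at 1 (3-parameter fit).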

Chain of PARP7 (Q7Z3E1 whole entry): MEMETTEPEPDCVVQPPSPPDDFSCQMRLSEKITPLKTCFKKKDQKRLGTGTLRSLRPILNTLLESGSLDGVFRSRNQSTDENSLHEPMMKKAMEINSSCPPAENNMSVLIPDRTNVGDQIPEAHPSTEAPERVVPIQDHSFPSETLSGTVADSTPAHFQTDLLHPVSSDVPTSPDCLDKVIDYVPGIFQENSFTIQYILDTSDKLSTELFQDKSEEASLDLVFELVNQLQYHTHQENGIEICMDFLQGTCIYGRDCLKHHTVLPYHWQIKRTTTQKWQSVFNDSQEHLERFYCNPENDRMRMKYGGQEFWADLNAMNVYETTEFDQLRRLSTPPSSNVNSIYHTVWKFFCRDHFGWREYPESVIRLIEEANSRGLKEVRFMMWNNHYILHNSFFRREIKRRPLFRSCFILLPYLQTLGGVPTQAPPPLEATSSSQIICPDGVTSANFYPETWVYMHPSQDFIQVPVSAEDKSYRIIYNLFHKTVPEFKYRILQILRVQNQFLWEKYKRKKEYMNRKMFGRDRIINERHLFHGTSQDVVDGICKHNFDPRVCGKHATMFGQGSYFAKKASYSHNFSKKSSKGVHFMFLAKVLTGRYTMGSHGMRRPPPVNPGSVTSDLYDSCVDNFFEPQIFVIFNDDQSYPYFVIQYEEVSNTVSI

SMILES | IC50 [nM]
O=C(CCOCCNc1cn[nH]c(=O)c1Cl)N1CCN(c2ncc(C(F)(F)F)cn2)CC1 [Example 508, 4-Chloro-5-[[2-(3-oxo-3-[4-[5-(trifluoromethyl)pyrimidin-2-yl]piperazin-1-yl]propoxy)ethyl]amino]-2,3-dihydropyridazin-3-one] | < 100
N#Cc1ccc(N2CCN(C(=O)/C=C/COC[C@H]3c4ccccc4CN3c3cn[nH]c(=O)c3C(F)(F)F)CC2)nc1 [Example 79 Isomer D, 6-[4-[(2E)-4-[[(1R)-2-[6-oxo-5-(trifluoromethyl)-1,6-dihydropyridazin-4-yl]-2,3-dihydro-1H-isoindol-1-yl]methoxy]but-2-enoyl]piperazin-1-yl]pyridine-3-carbonitrile] | < 100
COC[C@H](COCCC(=O)N1CCN(c2ncc(Cl)cn2)CC1)Nc1cn[nH]c(=O)c1C(F)(F)F [Example 557, 5-[[(2R)-1-[3-[4-(5-Chloropyrimidin-2-yl)piperazin-1-yl]-3-oxopropoxy]-3-methoxypropan-2-yl]amino]-4-(trifluoromethyl)-2,3-dihydropyridazin-3-one] | < 100
CN(C)C(=O)c1cccc2c1CN(c1cn[nH]c(=O)c1C(F)(F)F)C2 [Example 277, N,N-Dimethyl-2-(6-oxo-5-(trifluoromethyl)-1,6-dihydropyridazin-4-yl)isoindoline-4-carboxamide] | 100 to 1000
CC(C)c1c(N2Cc3cccc(OCCO)c3C2)cn[nH]c1=O [Example 243, 5-(4-(2-Hydroxyethoxy)isoindolin-2-yl)-4-isopropylpyridazin-3(2H)-one] | ≥ 1000
N#Cc1ccc(N2CCN(C(=O)/C=C/COC[C@@H]3CCCN3c3cn[nH]c(=O)c3C(F)(F)F)CC2)nc1 (single isomer, unassigned) [Example 96 Isomer B] | < 100
N#Cc1ccc(N2C3CCC2CN(C(=O)CCOC[C@@H]2CCCN2c2cn[nH]c(=O)c2C(F)(F)F)C3)nc1 [Example 102, 6-[3-(3-[[(2S)-1-[6-oxo-5-(trifluoromethyl)-1,6-dihydropyridazin-4-yl]pyrrolidin-2-yl]methoxy]propanoyl)-3,8-diazabicyclo[3.2.1]octan-8-yl]pyridine-3-carbonitrile] | < 100
C[C@H](COC[C@@H]1CCCN1c1cn[nH]c(=O)c1C(F)(F)F)C(=O)N1CCN(c2ccc(C#N)cn2)CC1 (single isomer, unassigned) [Example 94 Isomer A] | < 100
O=C(c1cccc(OC[C@@H]2CCCN2c2cn[nH]c(=O)c2C(F)(F)F)c1)N1CCn2cnnc2C1 [Example 451, (S)-5-(2-((3-(5,6,7,8-Tetrahydro-[1,2,4]triazolo[4,3-a]pyrazine-7-carbonyl)phenoxy)methyl)pyrrolidin-1-yl)-4-(trifluoromethyl)pyridazin-3(2H)-one] | 100 to 1000
N#Cc1cnc(N2CCN(C(=O)c3cncc(OC[C@@H]4CCCN4c4cn[nH]c(=O)c4C(F)(F)F)c3)CC2)nc1 [Example 65, 2-[4-[(5-[[(2S)-1-[6-oxo-5-(trifluoromethyl)-1,6-dihydropyridazin-4-yl]pyrrolidin-2-yl]methoxy]pyridin-3-yl)carbonyl]piperazin-1-yl]pyrimidine-5-carbonitrile] | < 100
C[C@@H](COCCC(=O)N1CCN(c2ncc(C(F)(F)F)cn2)CC1)Oc1cn[nH]c(=O)c1Cl (single isomer, unassigned) [Example 578 Isomer A] | < 100
N#Cc1cnc(N2CCN(C(=O)c3cc(OC[C@H]4c5ccccc5CN4c4cn[nH]c(=O)c4C(F)(F)F)ccn3)CC2)nc1 (single isomer, unassigned) [Example 64 Isomer A] | ≥ 1000
N#Cc1ccc(N2CCN(C(=O)CCNC[C@@H]3c4ccccc4CN3c3cn[nH]c(=O)c3Cl)CC2)nc1 [Example 426, (S)-6-(4-(3-(((2-(5-Chloro-6-oxo-1,6-dihydropyridazin-4-yl)isoindolin-1-yl)methyl)amino)propanoyl)piperazin-1-yl)nicotinonitrile] | < 100
O=C(C[C@@H]1CC[C@@H](COc2cn[nH]c(=O)c2C(F)(F)F)O1)N1CCN(c2ccc(C(F)(F)F)cn2)CC1 (single isomer, unassigned) [Example 545 Isomer A] | 100 to 1000
